# Laboratory results taken from patent publication US8715706B2, “Methods and devices for delivery of pharmaceutical agents within orifices of the body” (RDD Pharma, Ltd., priority 2009, dated 2014).
# Assays:
# anal sphincter [1] = experiment: Rectal manometry of resting anal pressure after Nifedipine from localized drug release system; type: in vivo, human; conditions: 90 minutes after insertion, N 6
# Description: Six healthy individuals were selected for measuring resting anal pressure as a function of different doses of Nifedipine administered using a localized drug release system as per an embodiment of the present invention.
# All dimensions are when empty before filling with API. When tested in a water bath, substantially all the API exited the shell within 40 minutes.
# (§1) The measurements were conducted using 4 mg, 12 mg or 24 mg of Nifedipine as API, respectively. A Nifedipine (API) solution was prepared at 45 degrees Celsius in a heated water bath. A 22 gauge dispensing needle (Techon Systems) was inserted through the tail and into the coated shell of the drug release system. While the shell was evacuated of air, one milliliter of Nifedipine compound was delivered to the shell via a syringe attached to the needle. A clip was used to seal the tail and the system was left until the Nifedipine became solid.
# A rectal manometry was used to measure resting anal pressure at baseline (before insertion) and 90 minutes after insertion of each shell with the relevant amount of API in a volume of one milliliter. The time of release of the API (API release time) ranged between 20-25 minutes (the variation due to changes in the normal human body temperature). FIGS. 12A and 12C graphically display the results of this study.
# anal sphincter [2] = experiment: Rectal manometry of resting and squeezing anal pressure tonus after Phenylephrine from localized drug release system; type: in vivo, human; parameters: Squeeze Rectal ref max / Squeeze Abs ref mean: unit not given here
# Description: The measurements conducted included resting anal pressure tonus and squeezing anal pressure tonus.
# as §1, with “using 40” for “using 4 mg, 12”, “mg and 80” for “mg or 24”, “of Phenylephprine” for “of Nifedipine”, “A Phenylephprine” for “A Nifedipine”, “the Phenylephrine” for “the Nifedipine”
# A rectal manometer was used to measure resting anal pressure tonus and squeezing anal pressure tonus at baseline (before insertion), […] amount of API in a volume of one milliliter. The API release time ranged between 20-25 minutes (the variation due to changes in the normal human body temperature). The results are shown below in Table III (40 mg) and Table IV (80 mg). Values shown in bold lettering in Table IV represent statistically significant difference (p<0.05) from baseline value, using paired t-test.
# anal canal = conditions: topical, cited from earlier work
# [3] = pK studies, rectal rate of absorption using drug release system; conditions: rectally, drug release system of Example 1, FIGS. 14 and 15
# From the text: Accordingly, it is intended to embrace all such alternatives, modifications and variations that fall within the spirit and broad scope of the appended claims.
compound,measurement,setting,value
COC(=O)C1=C(C)NC(C)=C(C(=O)OC)C1c1ccccc1[N+](=O)[O-] [Nifedipine],"Resting Max Pressure Rectal Ref, Max",anal sphincter [1]; 4 mg,151.0
same,"Resting Max Pressure Rectal Ref, Mean",anal sphincter [1]; 4 mg,111.6
same,"Resting Max Pressure Rectal Ref, Median",anal sphincter [1]; 4 mg,111.5
same,"Resting Max Pressure Rectal Ref, Min",anal sphincter [1]; 4 mg,72.2
same,"Resting Mean Pressure Rectal Ref, Max",anal sphincter [1]; 4 mg,124.0
same,"Resting Mean Pressure Rectal Ref, Mean",anal sphincter [1]; 4 mg,94.2
same,"Resting Mean Pressure Rectal Ref, Median",anal sphincter [1]; 4 mg,92.3
same,"Resting Mean Pressure Rectal Ref, Min",anal sphincter [1]; 4 mg,57.7
same,"Resting Max Pressure Rectal Ref, Max",anal sphincter [1]; 12 mg,187.1
same,"Resting Max Pressure Rectal Ref, Mean",anal sphincter [1]; 12 mg,105.9
same,"Resting Max Pressure Rectal Ref, Median",anal sphincter [1]; 12 mg,88.0
same,"Resting Max Pressure Rectal Ref, Min",anal sphincter [1]; 12 mg,79.8
same,"Resting Mean Pressure Rectal Ref, Max",anal sphincter [1]; 12 mg,89.4
same,"Resting Mean Pressure Rectal Ref, Mean",anal sphincter [1]; 12 mg,75.0
same,"Resting Mean Pressure Rectal Ref, Median",anal sphincter [1]; 12 mg,73.2
same,"Resting Mean Pressure Rectal Ref, Min",anal sphincter [1]; 12 mg,58.9
same,"Resting Max Pressure Rectal Ref, Max",anal sphincter [1]; 24 mg,153.7
same,"Resting Max Pressure Rectal Ref, Mean",anal sphincter [1]; 24 mg,90.2
same,"Resting Max Pressure Rectal Ref, Median",anal sphincter [1]; 24 mg,79.7
same,"Resting Max Pressure Rectal Ref, Min",anal sphincter [1]; 24 mg,58.8
same,"Resting Mean Pressure Rectal Ref, Max",anal sphincter [1]; 24 mg,80.0
same,"Resting Mean Pressure Rectal Ref, Mean",anal sphincter [1]; 24 mg,63.9
same,"Resting Mean Pressure Rectal Ref, Median",anal sphincter [1]; 24 mg,64.4
same,"Resting Mean Pressure Rectal Ref, Min",anal sphincter [1]; 24 mg,51.7
CNC[C@H](O)c1cccc(O)c1 [Phenylephrine],Length HPV,"anal sphincter [2]; 40 mg, 90 min",2.2 cm
same,Length Verge to center,"anal sphincter [2]; 40 mg, 90 min",0.8 cm
same,Resting Abs ref Max,"anal sphincter [2]; 40 mg, 90 min",109.0 mm Hg
same,Resting Abs ref Mean,"anal sphincter [2]; 40 mg, 90 min",95.0 mm Hg
same,Resting rectal ref Max,"anal sphincter [2]; 40 mg, 90 min",105.1 mm Hg
same,Resting rectal ref Mean,"anal sphincter [2]; 40 mg, 90 min",91.2 mm Hg
same,Squeeze Abs ref mean,"anal sphincter [2]; 40 mg, 90 min",348.7
same,Squeeze Rectal ref max,"anal sphincter [2]; 40 mg, 90 min",332.4
same,Length HPV,"anal sphincter [2]; 40 mg, 180 min",2.1 cm
same,Length Verge to center,"anal sphincter [2]; 40 mg, 180 min",0.5 cm
same,Resting Abs ref Max,"anal sphincter [2]; 40 mg, 180 min",127.8 mm Hg
same,Resting Abs ref Mean,"anal sphincter [2]; 40 mg, 180 min",93.1 mm Hg
same,Resting rectal ref Max,"anal sphincter [2]; 40 mg, 180 min",124.0 mm Hg
same,Resting rectal ref Mean,"anal sphincter [2]; 40 mg, 180 min",89.2 mm Hg
same,Squeeze Abs ref mean,"anal sphincter [2]; 40 mg, 180 min",336.5
same,Squeeze Rectal ref max,"anal sphincter [2]; 40 mg, 180 min",318.8
same,Length HPV,"anal sphincter [2]; 40 mg, 240 min",2.5 cm
same,Length Verge to center,"anal sphincter [2]; 40 mg, 240 min",0.8 cm
same,Resting Abs ref Max,"anal sphincter [2]; 40 mg, 240 min",94.2 mm Hg
same,Resting Abs ref Mean,"anal sphincter [2]; 40 mg, 240 min",82.5 mm Hg
same,Resting rectal ref Max,"anal sphincter [2]; 40 mg, 240 min",88.7 mm Hg
same,Resting rectal ref Mean,"anal sphincter [2]; 40 mg, 240 min",77.0 mm Hg
same,Squeeze Abs ref mean,"anal sphincter [2]; 40 mg, 240 min",376.7
same,Squeeze Rectal ref max,"anal sphincter [2]; 40 mg, 240 min",363.3
same,mean resting anal pressure,anal sphincter [2]; 80 mg in 1 cc volume (8% concentration),significant increase in the mean resting anal pressure
same,Length HPV,"anal sphincter [2]; 80 mg, 90 min",2.2 cm
same,Length Verge to center,"anal sphincter [2]; 80 mg, 90 min",0.5 cm
same,Resting Abs ref Max,"anal sphincter [2]; 80 mg, 90 min",139.9 mm Hg
same,Resting Abs ref Mean,"anal sphincter [2]; 80 mg, 90 min",107.6 mm Hg
same,Resting rectal ref Max,"anal sphincter [2]; 80 mg, 90 min",136.5 mm Hg
same,Resting rectal ref Mean,"anal sphincter [2]; 80 mg, 90 min",104.2 mm Hg
same,Squeeze Abs ref mean,"anal sphincter [2]; 80 mg, 90 min",364.1
same,Squeeze Rectal ref max,"anal sphincter [2]; 80 mg, 90 min",352.4
same,Length HPV,"anal sphincter [2]; 80 mg, 180 min",2.6 cm
same,Length Verge to center,"anal sphincter [2]; 80 mg, 180 min",0.7 cm
same,Resting Abs ref Max,"anal sphincter [2]; 80 mg, 180 min",111.8 mm Hg
same,Resting Abs ref Mean,"anal sphincter [2]; 80 mg, 180 min",90.8 mm Hg
same,Resting rectal ref Max,"anal sphincter [2]; 80 mg, 180 min",109.2 mm Hg
same,Resting rectal ref Mean,"anal sphincter [2]; 80 mg, 180 min",88.2 mm Hg
same,Squeeze Abs ref mean,"anal sphincter [2]; 80 mg, 180 min",350.7
same,Squeeze Rectal ref max,"anal sphincter [2]; 80 mg, 180 min",337.6
same,Length HPV,"anal sphincter [2]; 80 mg, 270 min",2.5 cm
same,Length Verge to center,"anal sphincter [2]; 80 mg, 270 min",0.9 cm
same,Resting Abs ref Max,"anal sphincter [2]; 80 mg, 270 min",96.1 mm Hg
same,Resting Abs ref Mean,"anal sphincter [2]; 80 mg, 270 min",83.1 mm Hg
same,Resting rectal ref Max,"anal sphincter [2]; 80 mg, 270 min",92.5 mm Hg
same,Resting rectal ref Mean,"anal sphincter [2]; 80 mg, 270 min",79.5 mm Hg
same,Squeeze Abs ref mean,"anal sphincter [2]; 80 mg, 270 min",340.4
same,Squeeze Rectal ref max,"anal sphincter [2]; 80 mg, 270 min",321.2
same,anal sphincter pressures at resting and at squeezing conditions,anal sphincter [2]; 40 and 80 mg,increased in a dose-dependent manner
same,resting pressure,"anal canal; 30% and 40%, compared with placebo",significant increase in resting pressure at both time points compared with placebo
same,median resting pressure,anal canal; concentrations of 10% and 20%,"modest increase in median resting pressure, this was not statistically significant"
Glucagon,rate of absorption,[3],relatively quickly absorbed
